Test in all cases: MIC, microdilution broth method
For one assay, the system named is MSSA9144. The format is cell-based, Staphylococcus aureus. The conditions noted are these: MSSA9144; in µg/mL.
In a further assay the test system is EMRSA16. It counts as cell-based, Staphylococcus aureus. The conditions noted are these: for MIC: EMRSA16, in µg/mL.
A further assay concerns VRE12201. It counts as cell-based, Enterococcus faecalis. The conditions noted are these: VRE12201; in µg/mL.
The next assay concerns VRE12204. The format is cell-based, Enterococcus faecium. The conditions noted are these: VRE12204; in µg/mL.
The next assay has as its system VSE775. It counts as cell-based, Enterococcus faecalis. The conditions noted are these: VSE775; in µg/mL.
In the next assay the test system is EMRSA15. It counts as cell-based, Staphylococcus aureus. The conditions noted are these: for MIC: EMRSA15, in µg/mL.
The subject of the next assay is M6. It counts as cell-based. The conditions noted are these: M6, in µg/mL.
A further assay deals with PA01. It counts as cell-based, Pseudomonas aeruginosa. The conditions noted are these: PA01, in µg/mL.
The next assay deals with Ab17978. The format is cell-based. The conditions noted are these: Ab17978, in µg/mL.

`CCn1cc(C(=O)O)c(=O)c2cc(F)c(N3CCN(Cc4ccc(-n5cccn5)cc4)CC3)cc21` [Compound 3.30, 7-(4-(4-(1H-pyrazol-1-yl)benzyl)piperazin-1-yl)-1-ethyl-6-fluoro oxo-1-4-dihydroquinoline-3-carboxylic acid]: the MIC was 0.5 against MSSA9144; 32 with EMRSA16; 4-8 in the assay with VRE12201; 16 with VRE12204; 8 against VSE775; 16-32 against EMRSA15.

Regarding `CCn1cc(C(=O)O)c(=O)c2cc(F)c(N3CCN(Cc4ccc(-c5noc(C)n5)cc4)CC3)cc21` [Compound 3.36, 1-ethyl-6-fluoro-7-(4-(4-(5-methyl-1,2,4-oxadiazol-3-yl)-benzyl)piperazin-1-yl)-4-oxo-1,4-dihydroquinone-3-carboxylic acid], the MIC against MSSA9144 is given as 0.25; with EMRSA16 it was 32; in the assay with VRE12201, 4; against VRE12204, 8; against VSE775 it was 8; in the assay with EMRSA15, 16-32.

Take `CCn1cc(C(=O)O)c(=O)c2cc(F)c(N3CCN(Cc4cccc5ccccc45)CC3)nc21` [ML-77-025]: the MIC against MSSA9144 is given as 0.5-1; in the assay on EMRSA16, 2-4; in the assay with VRE12201 it was 8; in the assay on VRE12204, 4; in the assay on VSE775 it was 16; with EMRSA15 it was 2-8. Also, the “fold reduction (potentiation) in MIC compared to the parent fluoroquinolone” value with EMRSA16 (EMRSA-16) and in the assay with EMRSA15 (EMRSA-15) was 64-128 fold throughout.

On to `CCn1cc(C(=O)O)c(=O)c2cc(F)c(N3CCN(Cc4cccc5c4OCO5)CC3)cc21` [ML-77-035], for which the MIC against MSSA9144 is reported as 0.5; against EMRSA16, above 32; in the assay on VRE12201, 4; in the assay with VRE12204, 8; in the assay on M6 (Normal (no PMBN)) it was 8-16; against VSE775, 8. Also, the MIC in the assay on EMRSA15 is above 32; against PA01 (Normal (no PMBN)), 64-128; with Ab17978 (Normal (no PMBN)) it was 2-4.

Take `O=C(O)c1cn(C2CC2)c2cc(N3CCN(Cc4ccc5ccccc5c4)CC3)c(F)cc2c1=O` [ML-77-036]: the MIC against MSSA9144 was 0.12; against EMRSA16, 2; with VRE12201, 0.5; in the assay on VRE12204, 2; against M6 (Normal (no PMBN)), 4-32; with VSE775 it was 0.5-2. Besides, the MIC with EMRSA15 was found to be 2; in the assay with Ab17978 (Normal (no PMBN)), 8.

For `O=C(O)c1cn(C2CC2)c2cc(N3CCN(Cc4cccc5c4CCCC5)CC3)c(F)cc2c1=O` [ML-77-076], the MIC is reported as 0.25 against MSSA9144; 1-2 against EMRSA16; 1-2 with VRE12201; 1-2 with VRE12204; 8 with M6 (Normal (no PMBN)); 2 with VSE775. Also, the MIC in the assay with EMRSA15 is reported as 1.

For the compound `CCn1cc(C(=O)O)c(=O)c2cc(F)c(N3CCN(Cc4cccc5c4CCCC5)CC3)cc21` [ML-77-077], the MIC was 1 against MSSA9144; 2 in the assay on EMRSA16; 2 against VRE12201; 1-2 in the assay with VRE12204; 64 against M6 (Normal (no PMBN)); 2 in the assay on VSE775. For the same compound, the MIC is 2 against EMRSA15 and 32-128 against Ab17978 (Normal (no PMBN)).

On to `O=C(O)c1cn(C2CC2)c2cc(N3CCN(Cc4cccc5ccsc45)CC3)c(F)cc2c1=O` [ML-77-078], for which the MIC in the assay on MSSA9144 is reported as below 0.12; against EMRSA16, 2; with VRE12201 it was 0.5; against VRE12204, 1-2; with M6 (Normal (no PMBN)), 32; in the assay with VSE775, 2-4. In addition, the MIC is recorded as 2 against EMRSA15 and 4-8 in the assay with Ab17978 (Normal (no PMBN)).

With `CCn1cc(C(=O)O)c(=O)c2cc(F)c(N3CCN(Cc4cccc5ccsc45)CC3)cc21` [ML-77-079], the MIC is reported as 0.25 in the assay on MSSA9144; 2 against EMRSA16; 0.5-2 in the assay on VRE12201; 1-2 in the assay on VRE12204; 32 against M6 (Normal (no PMBN)); 4 against VSE775. The same compound came in with an MIC against EMRSA15 of 2.

On to `CN(C)c1ccc(CN2CCN(c3cc4c(cc3F)c(=O)c(C(=O)O)cn4C3CC3)CC2)cc1` [ML-77-112], for which the MIC is on record as 0.0625-0.125 against MSSA9144; 0.125-0.5 in the assay with VRE12201; 1 with VRE12204; 1-2 with M6 (Normal (no PMBN)); 0.25-1 in the assay on VSE775; 8-16 with EMRSA15. The MIC with PA01 (Normal (no PMBN)) is recorded as 8; with Ab17978 (Normal (no PMBN)), 0.5-1.

In the case of `CCn1cc(C(=O)O)c(=O)c2cc(F)c(N3CCN(Cc4ccc(-c5ccccc5)cc4)CC3)cc21` [ML-77-134, 7-(4-([1,1′-biphenyl]-4-ylmethyl)piperazin-1-yl)-1-ethyl-6-fluoro-4-oxo-1,4-dihydroquinoline-3-carboxylic acid], the MIC against MSSA9144 amounted to 2; against EMRSA16, 4; in the assay with VRE12201, 4; with VRE12204, 2; in the assay on M6 (Normal (no PMBN)) it was 64; with VSE775, 2. For the same compound, the MIC in the assay on EMRSA15 turned out to be 2.

For the compound `O=C(O)c1cn(C2CC2)c2cc(N3CCN(Cc4ccc(S(=O)(=O)NCCc5c[nH]c6ccccc56)cc4)CC3)c(F)cc2c1=O` [ML-77-138], the MIC with MSSA9144 was 0.25-0.5; against M6 (+PMBN) it was 1; with PA01 (+PMBN), at most 0.12; against Ab17978 (+PMBN) it was 1; with Ab17978 (Normal (no PMBN)), 64.

As for `C[C@H]1COc2c(N3CCN(Cc4cccc5ccccc45)CC3)c(F)cc3c(=O)c(C(=O)O)cn1c23` [ML-77-140, (S)-9-fluoro-3-methyl-10-(4-(naphthalen-1-ylmethyl)piperazin-1-yl)-7-oxo-2,3-dihydro-7H-[1,4]oxazino[2,3,4-ij]quinoline-6-carboxylic acid], the MIC with MSSA9144 is listed as 0.125-1; in the assay on EMRSA16 it was 2-4; in the assay on VRE12201, 0.5-1; with VRE12204, 1-2; against VSE775 it was 1-2; in the assay with EMRSA15, 4.

With `CCn1cc(C(=O)O)c(=O)c2cc(F)c(N3CCN(Cc4cc(C)cc(C)c4)CC3)cc21` [ML-77-150, 7-(4-(3,5-dimethylbenzyl)piperazin-1-yl)-1-ethyl-6-fluoro-4-oxo-1,4-dihydroquinoline-3-carboxylic acid], the MIC is 0.5-1 with MSSA9144; 4-8 in the assay on EMRSA16; 8 with VRE12201; 4-8 against VRE12204; 32-64 against M6 (Normal (no PMBN)); 8 against VSE775. Further, the MIC was 4-8 against EMRSA15 and 16 in the assay on Ab17978 (Normal (no PMBN)).

As to `O=C(O)c1cn(C2CC2)c2cc(N3CCN(Cc4ccc(-c5csnn5)cc4)CC3)c(F)cc2c1=O` [ML-77-157], the MIC was below 0.12 in the assay on MSSA9144; 8 against EMRSA16; 0.5 with VRE12201; 4-8 in the assay with VRE12204; 1 in the assay on M6 (Normal (no PMBN)); 0.5 with VSE775. Moreover, the MIC in the assay with EMRSA15 is given as 4; against Ab17978 (Normal (no PMBN)), 0.25-0.5.

As for `Cc1nc(-c2ccc(CN3CCN(c4cc5c(cc4F)c(=O)c(C(=O)O)cn5C4CC4)CC3)cc2)no1` [ML-77-163], the MIC in the assay with MSSA9144 is at most 0.12; with EMRSA16, 32; in the assay on VRE12201, 1; against M6 (Normal (no PMBN)) it was 2; in the assay with VSE775, 1-2; with PA01 (Normal (no PMBN)) it was 32. Also, the MIC with Ab17978 (Normal (no PMBN)) is listed as 0.5-1.

For `O=C(O)c1cn(C2CC2)c2cc(N3CCN(c4cccc5ccccc45)CC3)c(F)cc2c1=O` [ML-77-168], the MIC with MSSA9144 is reported as 1; with EMRSA16, 1; in the assay on VRE12201, 0.25-0.5; against VRE12204, 1; in the assay with VSE775, 2; with EMRSA15, 1-2.

For `CCn1cc(C(=O)O)c(=O)c2cc(F)c(N3CCN(c4cccc5ccccc45)CC3)cc21` [ML-77-169, 1-ethyl-6-fluoro-7-(4-(naphthalen-1-yl)piperazin-1-yl)-4-oxo-1,4-dihydroquinoline-3-carboxylic acid], the MIC in the assay with MSSA9144 is on record as 2; against EMRSA16, 1; against VRE12201, 2; against VRE12204, 1; with VSE775 it was 2; with EMRSA15, 1-2.

On to `O=C(O)c1cn(C2CC2)c2cc(N3CCN(CCc4cccc5ccccc45)CC3)c(F)cc2c1=O` [ML-77-171], for which the MIC against MSSA9144 is listed as 0.5; with EMRSA16, 4; against VRE12201 it was 2; in the assay on VRE12204, 4; against VSE775 it was 4; against EMRSA15 it was 2-4.

As for `CCn1cc(C(=O)O)c(=O)c2cc(F)c(N3CCN(CCc4cccc5ccccc45)CC3)cc21` [ML-77-173, 1-ethyl-6-fluoro-7-(4-(2-(naphthalen-1-yl)ethyl)piperazin-1-yl)-4-oxo-1,4-dihydroquinoline-3-carboxylic acid], the MIC is given as 2-4 against MSSA9144; 4 in the assay on EMRSA16; 4-8 with VRE12201; 4 against VRE12204; 4-8 in the assay with VSE775; 4 in the assay on EMRSA15.

The record behind these values is US11746116B2, “Antibiotic resistance breakers” (KING'S COLLEGE LONDON, priority 2017, dated 2023).
